Activity calls are given as the source filed them. No cut-off for these calls is given here.
Columns and labels:
[1] = biological target: T1, DNA dC->dU-editing enzyme APOBEC-3A (Homo sapiens, UniProt P31941); test: (§1) Inhibition of recombinant APOBEC3A (unknown origin) expressed in HEK293 cells assessed as reduction in cytosine deaminase activity using 5'-6-FAM and 3'-TAMRA quench molecule tagged cytosine-containing single-stranded DNA substrate incubated for 2 hrs by fluorescence-based assay; format: cell-based
[2] = biological target: T2, DNA dC->dU-editing enzyme APOBEC-3G (Homo sapiens, UniProt Q9HC16); test: (§2) Inhibition of recombinant APOBEC3G (unknown origin) expressed in HEK293 cells assessed as reduction in cytosine deaminase activity using 5'-6-FAM and 3'-TAMRA quench molecule tagged cytosine-containing single-stranded DNA substrate incubated for 2 hrs by fluorescence-based assay; format: cell-based
[3] = biological target: DNA dC->dU-editing enzyme APOBEC-3B (Homo sapiens, UniProt Q9UH17); test: Inhibition of recombinant APOBEC3B (unknown origin) expressed in HEK293 cells assessed as reduction in cytosine deaminase activity using 5'-6-FAM and 3'-TAMRA quench molecule tagged cytosine-containing single-stranded DNA substrate incubated for 2 hrs by fluorescence-based assay; format: cell-based
[4] = biological target: DNA dC->dU-editing enzyme APOBEC-3G (Homo sapiens, UniProt Q9HC16, C321A); test: Inhibition of recombinant APOBEC3G C321A mutant (unknown origin) expressed in HEK293 cells assessed as reduction in cytosine deaminase activity using 5'-6-FAM and 3'-TAMRA quench molecule tagged cytosine-containing single-stranded DNA substrate incubated for 2 hrs by fluorescence-based assay; format: cell-based
[5] = Inhibition of recombinant APOBEC3G 2K3A mutant (unknown origin) expressed in HEK293 cells assessed as reduction in cytosine deaminase activity using 5'-6-FAM and 3'-TAMRA quench molecule tagged cytosine-containing single-stranded DNA substrate incubated for 2 hrs by fluorescence-based assay; format: cell-based, Homo sapiens
[6] = biological target: T1, DNA dC->dU-editing enzyme APOBEC-3A; test: as §1, with “activity at 200 uM” for “activity”, “assay relative to control” for “assay”; format: cell-based
[7] = Toxicity in HEK293T cells assessed as cell viability at 50 uM incubated for 5 days relative to control; format: cell-based, HEK-293T; details: human, read-out: Activity
[8] = Stability in DMSO assessed as light dependent drug degradation by HPLC analysis; format: physicochemical
[9] = biological target: T1, DNA dC->dU-editing enzyme APOBEC-3A; details: HEK293, 200 uM
Description: Inhibition of recombinant APOBEC3A (unknown origin) expressed in HEK293 cells assessed as reduction in cytosine deaminase activity at 200 uM using 5'-6-FAM and 3'-TAMRA quench molecule tagged cytosine-containing single-stranded DNA substrate incubated for 2 hrs and measured on day 0 by fluorescence-based assay

[10] = Stability in DMSO assessed as drug degradation at -20 to 37 degC by HPLC analysis; format: physicochemical
[11] = Stability in saturated N2 atmosphere assessed as drug degradation by NMR and LC-MS/MS analysis; format: physicochemical
[12] = biological target: T2, DNA dC->dU-editing enzyme APOBEC-3G; test: as §2, with “activity at 200 uM” for “activity”, “hrs and measured on day 0” for “hrs”; format: cell-based
[13] = Stability in DMSO assessed as drug degradation incubated for 21 days by HPLC analysis; format: physicochemical; details: 504 h
[14] = Drug metabolism in DMSO at 10 mM shaken gently at 25 degC exposed to visible light (300 W) in oxygen-saturated atmosphere assessed as 2-oxo-1,2-dihydroquinoline-4-carboxylic acid formation after 38 days by HPLC analysis
[15] = Toxicity in human HeLa cells assessed as cell viability at 50 uM incubated for 5 days relative to control; format: cell-based; details: read-out: Activity
[16] = Stability in DMSO at 10 mM shaken gently at 25 degC exposed toN2 atmosphere assessed as compound degradation measured over 9 hrs by HPLC analysis; format: physicochemical; details: 10000 µM
[17] = Drug metabolism in DMSO at 10 mM shaken gently at 25 degC open to atmosphere condition assessed as 2-oxo-1,2-dihydroquinoline-4-carboxylic acid formation after 38 days by HPLC analysis
[18] = biological target: T2, DNA dC->dU-editing enzyme APOBEC-3G; test: as §2, with “hrs and measured on at days 3, 21, 38, and 72” for “hrs”; format: cell-based

Sequence of DNA dC->dU-editing enzyme APOBEC-3G (Homo sapiens, UniProt Q9HC16, C321A) (Q9HC16 whole entry C321A): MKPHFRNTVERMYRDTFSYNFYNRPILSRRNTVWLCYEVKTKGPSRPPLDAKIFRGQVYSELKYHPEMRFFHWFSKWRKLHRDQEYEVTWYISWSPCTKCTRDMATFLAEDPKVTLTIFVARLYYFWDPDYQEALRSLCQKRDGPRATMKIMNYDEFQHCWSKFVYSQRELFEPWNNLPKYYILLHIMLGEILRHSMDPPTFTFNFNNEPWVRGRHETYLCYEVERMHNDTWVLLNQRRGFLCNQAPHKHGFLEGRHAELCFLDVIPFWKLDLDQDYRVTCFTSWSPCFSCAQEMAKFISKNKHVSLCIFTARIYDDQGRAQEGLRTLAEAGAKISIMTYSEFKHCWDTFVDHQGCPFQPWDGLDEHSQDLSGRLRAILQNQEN
T2 sequence (Q9HC16 whole entry): as the sequence (Q9HC16 whole entry C321A) above, with A321C counted along it
T1 sequence (P31941 whole entry): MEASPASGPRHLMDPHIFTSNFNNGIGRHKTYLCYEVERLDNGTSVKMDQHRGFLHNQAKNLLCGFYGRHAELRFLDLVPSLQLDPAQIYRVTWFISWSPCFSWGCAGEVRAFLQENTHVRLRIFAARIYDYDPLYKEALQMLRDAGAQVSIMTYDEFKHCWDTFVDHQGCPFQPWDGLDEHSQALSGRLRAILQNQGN
Sequence of DNA dC->dU-editing enzyme APOBEC-3B (Q9UH17 whole entry): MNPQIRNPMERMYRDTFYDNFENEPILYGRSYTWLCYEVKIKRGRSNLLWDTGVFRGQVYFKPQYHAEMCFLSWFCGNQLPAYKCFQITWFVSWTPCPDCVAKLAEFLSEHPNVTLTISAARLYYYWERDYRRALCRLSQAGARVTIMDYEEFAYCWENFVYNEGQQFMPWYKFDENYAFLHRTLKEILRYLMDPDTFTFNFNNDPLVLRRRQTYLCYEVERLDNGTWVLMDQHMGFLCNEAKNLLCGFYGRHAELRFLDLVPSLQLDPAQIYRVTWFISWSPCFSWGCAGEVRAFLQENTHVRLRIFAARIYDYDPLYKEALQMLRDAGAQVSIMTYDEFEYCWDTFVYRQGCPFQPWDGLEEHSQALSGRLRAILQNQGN

Row | IC50 [1] [µM] | IC50 [2] [µM] | IC50 [3] [µM] | IC50 [4] [µM] | IC50 [5] [µM] | SMILES | also measured
1 | > 100 | 12 | 31 | 23 | 74 | O=C(Nc1nnc(-c2ccncc2)s1)c1cc(=O)[nH]c2ccc([N+](=O)[O-])cc12 | –
2 | > 100 | 90 | > 100 | > 100 | > 100 | O=C(Nc1nnc(-c2ccncc2)s1)c1cc(=O)[nH]c2ccccc12 | inhibition [6]: 50%
3 | > 100 | 18 | 31 | 30 | 55 | Nc1ccc2[nH]c(=O)cc(C(=O)Nc3nnc(-c4ccncc4)s3)c2c1 | –
4 | > 100 | 17 | 37 | 20 | 24 | COc1ccc2[nH]c(=O)cc(C(=O)Nc3nnc(-c4ccncc4)s3)c2c1 | –
5 | 75 | 32 | 65 | 52 | – | O=C(Nc1nnc(-c2ccncc2)s1)c1cc(Br)nc2ccccc12 | –

The remaining lines, values behind:

Row | SMILES | IC50 [1] [µM] | IC50 [2] [µM] | IC50 [3] [µM] | IC50 [4] [µM] | IC50 [5] [µM] | also measured
6 | O=C(O)c1cccc2c1C(=O)N(c1ccccc1)C2 | 111 | – | – | – | – | –
7 | O=C(Nc1nnc(-c2ccncc2)s1)c1ccc(O)nc1 | 87 | 21 | 30 | 31 | – | –
8 | O=C(Nc1nnc(-c2ccncc2)s1)c1cc(Cl)nc2ccccc12 | > 100 | 22 | > 100 | > 100 | > 100 | –
9 | N#Cc1ncnn1C(=O)c1cc(=O)[nH]c2ccccc12 | > 100 | 15 | > 100 | > 100 | > 100 | –
10 | O=C(Nc1nnc(-c2ccncc2)s1)c1ccnc(O)c1 | > 100 | 60 | – | – | > 100 | –
11 | Cc1ccc(-c2cc(C(=O)Nc3nnc(-c4ccncc4)s3)c3ccccc3n2)o1 | – | – | – | – | – | viability at 120 h, 50 µM [7]: > 85%; Stability [8]: Unstable; inhibition [9]: inactive; Stability [10]: Unstable; Stability [11]: Stable; inhibition [12]: inactive; Stability [13]: Unstable; Drug metabolism [14]: Metabolite detected; viability at 120 h, 50 µM [15]: > 85%; Stability [16]: Stable; Drug metabolism [17]: Metabolite detected; inhibition [18]: inactive

From ChEMBL document CHEMBL4419174, “Small molecule inhibitors of apobec3g and apobec3b” (2015)
